Experiments:
[1] = test system: HuTu-80 cells; test: Autophagy detection (MDC staining); assay type: cell-based, human; conditions: 8 µM, 24 h, versus control
From the text: It is known that bile acids can induce cell death independently of apoptosis by activation of autophagy. Autophagy is a regulated lysosome-dependent pathway involved in the degradation of damaged and obsolete intracellular components. During autophagy, these components are isolated by a bilayer membrane resulting in autophagosome formation. Autophagosomes than fuse with lysosomes that leads to enzymatic degradation of their contents. During prolonged and strong stress, cells can autophagocytize up to a half of their cytoplasm that leads to a collapse of cell functions and, as a result, cell death. Monodansylcadaverin (MDC) is an autofluorescent amine that specifically accumulates within autophagic vacuoles and, therefore, can be used as a marker of autophagy.
HuTu-80 cells were seeded in 6-well plates at a density of 5 × 10^5 cells per well and incubated for 24 h under standard conditions. Then the cells were treated by compound 9 at 8 µM for 24 h, collected by trypsinization, washed with PBS, suspended with 50 µM of MDC at 37 °C for 15 min and analyzed using NovoCyte Flow Cytometer (ACEA Biosciences Inc.). In order to evaluate the type of autophagy (cytoprotective or cytodestructive), HuTu-80 cells were seeded in 96-well plate at a density of 5 × 10^3 cells/well for 24 h followed by co-treatment with compound 9 at 8 µM and chloroquine, an autophagy inhibitor, at 50 µM for 24 h. […]

[2] = test system: RAW264.7 macrophages; test: MTT cytotoxicity assay, RAW264.7; assay type: cell-based, murine
From the text: (§1) According to our previous data and data published by other research groups, chemical transformations of bile acids can greatly improve their antitumor potential. Thus, as the first step of evaluation of the biological activities of our novel DCA derivatives we assessed their effects on tumor cell viability. The cytotoxicity of the compounds was investigated with respect to a panel of cultured cell lines, including human duodenal HuTu-80, hepatocellular HepG2, cervical KB-3-1 and lung A549 carcinomas as well as murine macrophage RAW264.7 and non-transformed human fibroblasts hFF3 by MTT assay.
(§2) Human duodenal carcinoma HuTu-80 cells, human hepatocellular carcinoma HepG2 cells, human cervical carcinoma KB-3-1 cells, human lung carcinoma A549 cells were obtained from the Russian Cell Culture Collection (Institute of Cytology, RAS, St. Petersburg, Russia). Non-transformed human fibroblasts hFF3 were kindly provided by Dr. Olga Koval (Institute of Chemical Biology and Fundamental Medicine, SB RAS, Novosibirsk, Russia). RAW264.7 macrophages were kindly provided by Prof. Dr. Dmitry Kuprash (Engelhardt Institute of Molecular Biology, RAS, Moscow, Russia). The cells were cultured in DMEM (Sigma-Aldrich Inc., St. Louis, MO, USA) supplemented with 10% (v/v) heat-inactivated fetal bovine serum (FBS) (BioloT, St. Petersburg, Russia), 100 U/mL penicillin (ICN Biomedicals Inc., Costa Mesa, CA, USA), 100 µg/mL streptomycin and 0.25 µg/mL amphotericin; additionally, in the case of RAW264.7 cells, concentration of glucose in the medium was increased up to 4.5 mg/mL. The cells were incubated at 37 °C in 5% CO2 and 95% air (hereafter referred to as standard conditions). DCA derivatives were dissolved in DMSO to yield stock solutions of 10 mmol/L and stored at −20 °C prior to use.
(§3) Cells were seeded in triplicate in 96-well plates at a density of 5 × 10^3 (HuTu-80, HepG2, KB-3-1, hFF3), 10^4 (A549) or 5 × 10^4 (RAW264.7) cells per well. Cells were incubated under standard conditions for 24 h and then they were treated with varying doses of investigated derivatives for subsequent 24 h. Then 10 µL of MTT solution (5 mg/mL) were added to each wells and cells were incubated for an additional 2 h under standard conditions. The crystals of formazan forming within live cells were solubilized with DMSO and the absorbance was measured in a Multiscan RC plate reader (Thermo LabSystems, Helsinki, Finland) at a test and reference wavelengths of 570 nm and 620 nm, respectively. […] To perform SAR analysis, hierarchical clustering of compounds based on their IC50 values was fulfilled with Euclidean distance by using the Morpheus tool (https://software.broadinstitute.org/morpheus/), a platform designed for visualization and analysis of data in a matrix format. Heatmap, containing compounds’ SI values, were constructed by using the Excel 2010 software (Microsoft, Redmond, WA, USA). In order to reveal whether ROS participate in the induction of cell death by compound 9, HuTu-80 cells cultured in 96-well plate were pretreated by NAC at 2 mM for 1 h. Thereafter, the medium was replaced by fresh medium with compound 9 at 8 µM and the cells were incubated with subsequent 24 h under standard conditions. After this time period, the curves of cytotoxicity of compound 9 in the presence or absence of NAC were compared.

[3] = test system: HuTu-80 cells; test: Annexin V FITC/PI apoptosis detection; assay type: cell-based, human; conditions: 8 µM; for late apoptotic cells (Annexin V FITC+/PI+): control 1.5%; for early apoptotic cells (Annexin V FITC+/PI-): control 2.9%
Protocol: In the first step of the mechanistic study, the effect of compound 9 on phosphatidylserine (PS) externalization, a marker of the early phase of apoptosis, was analyzed by double staining of compound 9-treated HuTu-80 cells by annexin V FITC and propidium iodide (PI). Live cells are characterized by lipid membrane asymmetry—PS is mainly present in the inner leaflet of the plasma membrane, whereas phosphatidylcholine and sphingomielin are restricted to the outer leaflet. During apoptosis the activity of enzymes involved in membrane lipid scrambling […] and PS is exposed on cell surface. Annexin V is a protein that has a high affinity for PS and its conjugates with fluorophores can be used to estimate the level of PS externalization in vitro. Usage of PI gives in turn an opportunity to identify late apoptotic and necrotic cells displaying increased membrane permeability.
HuTu-80 cells were seeded in 6-well plates at a density of 5 × 10^5 cells per well and incubated for 24 h under standard conditions. Then the medium was replaced with fresh medium containing compound 9 at 8 µM. In order to determine induction of apoptosis, cells were harvested at 6, 18 and 24 h post treatment. Cells were detached with trypsin, washed with cold PBS and then resuspended gently in binding buffer at concentration of 10^6 cells/mL. Thereafter, cells were stained with fluorescein isothiocyanate (FITC)-conjugated Annexin V and PI (Annexin V-FITC Apoptosis Detection Kit, Millipore, Bedford, MA, USA) for 15 min in the dark and subsequently analyzed using NovoCyte Flow Cytometer (ACEA Biosciences Inc., San Diego, CA, USA). For each sample, 10.000 events were acquired.

[4] = test system: HuTu-80 cells; test: cells; assay type: cell-based
From the text: as §1, §2, §3

COC(=O)CC[C@@H](C)[C@H]1CC[C@H]2[C@@H]3CC[C@@H]4CC(O)(CNCCCO)CC[C@]4(C)[C@H]3CC(=O)[C@]12C (stereo partly drawn) [Compound 9, Methyl 3-hydroxy-3-((3-hydroxypropylamino)methyl)-12-oxo-5β-cholan-24-oate]
intensity of MDC-associated fluorescence [1]: significantly higher than in control | IC50 ([2]; Mus musculus, RAW264.7, MTT, 24 h, read-out: IC50 RAW264.7 (macrophage)): 19.3 ± 3.7 µM | Selectivity index RAW264 ([2]; ratio IC50 hFF3 / IC50 RAW264.7): 1.7 | late apoptotic cells (Annexin V FITC+/PI+) ([3]; 18 h): 4.9% | early apoptotic cells (Annexin V FITC+/PI-) ([3]; 18 h): 23.5% | late apoptotic cells (Annexin V FITC+/PI+) ([3]; 24 h): 10.6% | early apoptotic cells (Annexin V FITC+/PI-) ([3]; 24 h): 36.1% | necrotic cells (Annexin V FITC-/PI+) ([3]; all time points (6, 18, 24 h)): ≤ 1.1% | IC50 ([4]; Homo sapiens, HuTu80, MTT, 24 h, read-out: IC50 HuTu-80 (duodenum)): 4 ± 0.5 µM | Selectivity index HuTu-80 ([4]; ratio IC50 hFF3 / IC50 HuTu-80): 8.3

Reference: article PMC6681416, “Novel Derivatives of Deoxycholic Acid Bearing Linear Aliphatic Diamine and Aminoalcohol Moieties and their Cyclic Analogs at the C3 Position: Synthesis and Evaluation of Their In Vitro Antitumor Potential” (Molecules, 2019)
